Data from patent US20190071416A1, “COMPOUNDS FOR TREATMENT OF CANCER AND EPIGENETICS” (Agency For Science, Technology and Research, priority 2015, published 2019).
Where two headings read alike, the source gives them in different places.

Experiments:
SMYD3 [1] = biological target: T1, SMYD3 (Homo sapiens, UniProt Q9H7B4); assay: SMYD3 biochemical assay (MTase-Glo, MAP3K2 peptide substrate)
T1 sequence (Q9H7B4 1-428): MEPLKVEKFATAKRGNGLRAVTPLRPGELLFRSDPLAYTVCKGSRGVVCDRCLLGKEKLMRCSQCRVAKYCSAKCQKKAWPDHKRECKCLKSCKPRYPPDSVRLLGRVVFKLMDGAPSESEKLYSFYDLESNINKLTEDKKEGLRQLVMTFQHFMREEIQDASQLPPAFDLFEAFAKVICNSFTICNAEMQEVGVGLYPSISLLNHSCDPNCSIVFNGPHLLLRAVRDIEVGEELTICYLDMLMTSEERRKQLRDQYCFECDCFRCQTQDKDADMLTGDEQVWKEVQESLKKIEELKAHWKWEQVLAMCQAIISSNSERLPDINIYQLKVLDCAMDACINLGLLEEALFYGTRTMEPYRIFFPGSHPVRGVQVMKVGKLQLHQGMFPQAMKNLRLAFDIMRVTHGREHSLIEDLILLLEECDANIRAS
In short: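 Luminescent readout of SAH production (coupled SAH→ATP conversion, MTase-Glo) after SMYD3 reacted 30 min at room temperature with 1.0 µM SAM and 10 µM MAP3K2 peptide, both final. Non-linear regression gave IC50 values.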

HCT-116 = assay: Cell proliferation assay (CellTiter-Glo), HCT-116; assay type: cell-based; conditions: Homo sapiens, HCT-116, 72 h; 3 days
Method: (§1) The cell proliferation assays were tested in several cell lines, including HepG2,HCT116, A549, HPAF-II, CFPAC-1,HuH7, SNU398,Hep3B, and HEK293. All cell lines are from ATCC. HepG2, HPAF-II and HEK293 are cultured in Eagle's MEM media supplemented with fetal bovine serum. HCT116 is cultured in McCoy media supplemented with fetal bovine serum. Huh-7 is cultured in DMEM low glucose (1000 mg/L glucose) with 10% FBS, 1% L-Glutamate and 1% Penicillin/Streptomycin. SNU398 is cultured in RPMI with 10% FBS with 1% L-Glutamate and 1% Penicillin/Streptomycin. Hep3B is cultured in Eagle's MEM with 10% FBS, 1% L-Glutamate and 1% Penicillin/Streptomycin. A549 is cultured in RPMI media supplemented with fetal bovine serum while CFPAC-1 is cultured in IMDM media supplemented with fetal bovine serum. All media and serum are purchased from Gibco (Lifetech). All cells were grown in a temperature controlled incubator at 37° C. and 5% CO2.
(§2) Cell proliferation assay was performed using CellTiter-Glo Luminescent Cell Viability Assay (Promega) following manufacturer's instructions. The cell-line of interest was treated with compounds that were serial diluted in its respective media. Plates were incubated for 3 days at 37° C. in 5% CO2. After 3 days, an equal volume of Cell Titer Glo reagent was added. Plates were rocked on a rotator for 2 h. 100 μL of each well were transferred to a 96-well opaque plate, and luminescence emitted was measured with the Tecan Safire II.

A549 = assay: Cell proliferation assay (CellTiter-Glo), A549; assay type: cell-based; conditions: Homo sapiens, A549, 72 h; 3 days
Method: as §1, §2

[2] = tested on: MAP3K2 methylation (me2/me3-Lys 260); assay: SMYD3 mediated methylation of MAP3K2 in HEK293 cells (Western blot); assay type: cell-based, Human; conditions: 25 μM
Method: (§3) The cells were seeded in 6 well plates. After seeding for 24 h, the cells were treated with either DMSO or 25 μM compound and incubated for 24 hr. The cells were trypsinized and the lysate was extracted with RIPA buffer (Santa Cruz). The total protein concentration of lysate is quantified using the standard Bradford assay (Biorad protein assay, microplate standard assay).
Western blot analysis for detecting methylated MAP3K2 was carried out using a customized Anti-me2/me3-Lys 260 MAP3K2 at 1:500 and the total MAP3K2 was detected using Anti-MEKK2 (AB33918) using a 1:10,000 dilution.
B019 was further tested for its ability to inhibit SMYD3 in cells through its effects on cellular MAP3K2 methylation. This was performed using an antibody against the MAP3K2 (me2/me3), Anti-ME2/ME3-K260-MAP3K2 (1:500) and total MAP3K2, Anti-MEKK2 #ab33918 (1:10,000).

SMYD3 [3] = biological target: T1, SMYD3; assay: Target engagement assay, SMYD3 levels by Western blot in HEK293 cells transfected with Myc-SMYD3; assay type: cell-based; parameters: host or cells: HEK293 (ATCC); conditions: 25 μM, overnight, HEK293 transiently transfected with Myc-tagged SMYD3
Method: The target engagement assay was performed with HEK293 that is engineered to overexpress SMYD3 (HEK293-SMYD3). The plasmid SMYD3 (Myc-DDK-tagged-Human SET and MYND domain containing 3) was purchased from Origene (RC230064) and transfected with lipofectamine 2000 (Invitrogen) into HEK293 (ATCC). The cell line is cultured in Eagle's MEM media supplemented with fetal bovine serum and geneticin (Invitrogen). Presence of over-expressed SMYD3 is confirmed with western blot with antibody against SMYD3 and the MYC tag as well as with RT-PCR with SMYD3 primers.
as §3
Western blot analysis was performed using antibody against SMYD3 in HEK293 cells over-expressing SMYD3 (HEK293-SMYD3) treated with compound at different time points. 15.0 μg of cell lysate was diluted in 2× Laemmli sample buffer (Bio-Rad) and boiled at 100° C. on heat block for 5 min. Lysates were separated using NuPAGE® 4-12% Bis-Tris precast polyacrylamide gels (Lifetech) at 200 V, […] for 40 min. […]

Compound: CCCOC(=O)N1CCN(C(=O)c2ccc3c(Cl)cc(-c4ccccc4)nc3c2)C[C@H]1C [B019, Propyl (R)-4-(4-chloro-2-phenylquinoline-7-carbonyl)-2-methylpiperazine-1-carboxylate]
- IC50 (SMYD3 [1]; Table 1, MAP3K2 peptide as substrate, read-out: IC50): 0.0595 µM
- IC50 (SMYD3 [1]; Table 2, read-out: Biochemical assay IC50): 0.0595 µM
- IC50 (SMYD3 [1]; Table 3, MTase assay, MAP3K2 peptide substrate, read-out: IC50): 0.06 µM
- GI50 (HCT-116): 17.9 µM
- GI50 (A549): 28.8 µM
- inhibition of methylation of MAP3K2 in cells [2]: inhibited
- total MAP3K2 levels [2]: without changing
- reduction in SMYD3 levels (SMYD3 [3]): 35-37%
